Results from BindingDB's records for doi:10.1016/j.bmcl.2013.06.055 (Takeda California, 2013).

Tests used:
[1] = Inhibition of PARP1 in human Jurkat cells assessed as reduction of cell viability after 96 hrs by MTS assay in presence of 100 uM of temozolomide
[2] = Inhibition of PARP1 in human Jurkat cells assessed as reduction of cell viability after 96 hrs by MTS assay

Structure (SMILES) | EC50 [1] [µM] | EC50 [2] [µM]
CCNC(=O)c1ccc(N2CCN(Cc3cc4c(c(OCC)c3)OC(C)C(=O)N4)CC2)c(C)c1 (configuration not stated) | 0.02 | 100
CCNC(=O)c1ccc(N2CCN(Cc3cc(C)c4c(c3)NC(=O)C(C)O4)CC2)c(Cl)c1 (configuration not stated) | 14 | 47
CCNC(=O)c1ccc(N2CCN(Cc3ccc4c(c3)NC(=O)C(C)O4)CC2)c(Cl)c1 (configuration not stated) | 4 | 100
CCNC(=O)c1ccc(N2CCN(Cc3cc(C)c4c(c3)NC(=O)C(C)O4)CC2)c(C)c1 (configuration not stated) | 9 | 55
CNC(=O)c1ccc(N2CCN(Cc3cc4c(c(OC)c3)OC(C)C(=O)N4)CC2)cc1 (configuration not stated) | 27 | 251
CNC(=O)c1ccc(N2CCN(Cc3cc(C)c4c(c3)NC(=O)C(C)O4)CC2)cc1 (configuration not stated) | 11 | 75
CNC(=O)c1ccc(N2CCN(Cc3cc(C)c4c(c3)NC(=O)C(C)O4)CC2)c(C)c1 (configuration not stated) | 9 | 78
Cc1cc(C(=O)NC2CC2)ccc1N1CCN(Cc2cc(C)c3c(c2)NC(=O)C(C)O3)CC1 (configuration not stated) | 18 | 100
CCNC(=O)c1ccc(N2CCN(Cc3cc4c(c(OC)c3)OC(C)C(=O)N4)CC2)cc1 (configuration not stated) | 16 | 151
CCNC(=O)c1ccc(N2CCN(Cc3cc4c(c(OC)c3)OC(C)C(=O)N4)CC2)c(C)c1 (configuration not stated) | 0.01 | 44
CCOc1cc(CN2CCN(c3ccc(C(=O)NC)cc3C)CC2)cc2c1OC(C)C(=O)N2 (configuration not stated) | 0.02 | 26
CNC(=O)c1ccc(N2CCN(Cc3ccc4c(c3)NC(=O)C(C)O4)CC2)cc1 (configuration not stated) | 15 | 14
Cc1cc(CN2CCN(c3ccc(C(=O)NC4CC4)cc3Cl)CC2)cc2c1OC(C)C(=O)N2 (configuration not stated) | 0.01 | 43
COc1cc(CN2CCN(c3ccc(C(=O)NC4CC4)cc3)CC2)cc2c1OC(C)C(=O)N2 (configuration not stated) | 16 | 162
CNC(=O)c1ccc(N2CCN(Cc3cc4c(c(OC)c3)OC(C)C(=O)N4)CC2)c(C)c1 (configuration not stated) | 0.06 | 100
Cc1cc(CN2CCN(c3ccc(C(=O)NC4CC4)cc3)CC2)cc2c1OC(C)C(=O)N2 (configuration not stated) | 5 | 100
CNC(=O)c1ccc(N2CCN(Cc3cc(C)c4c(c3)NC(=O)C(C)O4)CC2)c(Cl)c1 (configuration not stated) | 14 | 45
CCNC(=O)c1ccc(N2CCN(Cc3cc(C)c4c(c3)NC(=O)C(C)O4)CC2)cc1 (configuration not stated) | 9 | 94
COc1cc(CN2CCN(c3ccc(C(=O)NC4CC4)cc3C)CC2)cc2c1OC(C)C(=O)N2 (configuration not stated) | 0.02 | 77
CCNC(=O)c1ccc(N2CCN(Cc3ccc4c(c3)NC(=O)C(C)O4)CC2)cc1 (configuration not stated) | 15 | 42
CCOc1cc(CN2CCN(c3ccc(C(=O)NC4CC4)cc3C)CC2)cc2c1OC(C)C(=O)N2 (configuration not stated) | 0.02 | 100
